Data on 22 compounds can be found in PubChem BioAssay (NCI).

Holding throughout (assay): growth of human tumour cells (NCI), 48 h
For assay [1], the system named is HCT-15 colon.
Assay [2] deals with SN12C renal.
The test system of assay [3] is BT-549 breast.
Assay [4] deals with M14 melanoma.
Assay [5] has as its system SF-295 CNS.
The test system of assay [6] is HCT-116 colon.
In assay [7] the test system is RPMI-8226 leukemia.
Assay [8] has as its system NCI-H522 lung.
The test system of assay [9] is NCI-H226 lung.
The subject of assay [10] is CCRF-CEM leukemia.

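Five compound concentrations were applied to cells in 96-well plates for 48 hours; endpoints were derived by simple linear interpolation of the resulting dose-response curve. GI50 = concentration required for 50% inhibition of growth. Definition used: TGI = concentration required for complete inhibition of growth.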 A value given as a limit tells only on which side of the number the result lay.

For `Cc1cc(S(=O)(=O)Nc2nc3ccccc3o2)c(SCc2ccccc2)cc1Cl`, the GI50 is 21.5 µM in assay [1]; 32.1 µM in [2]; 30.5 µM in assay [3]; 17.5 µM in assay [4]; 19.2 µM in assay [5]; 13.8 µM in [6]. In addition, the GI50 is 11.2 µM in [7], greater than 100 µM in assay [8] and 26.4 µM in assay [9]. Moreover, the TGI in [1] was 52.8 µM; in assay [2], 90.1 µM; in assay [3], 79.3 µM; in assay [4], 38 µM; in assay [5], 57 µM; in assay [6], 33.4 µM. Further, the TGI was 30.1 µM in [7], greater than 100 µM in [8] and 72.9 µM in assay [9].

As to `CCN(CCCN(C)C)Cc1cc(I)cc(C)c1O`, the GI50 in assay [1] is 21.5 µM; in [2], 59.9 µM; in assay [3] it was 12.7 µM; in assay [4], 16.6 µM; in assay [5] it was 15.9 µM; in assay [6], 14.6 µM. For the same compound, the values for the GI50 in assay [7], in [8] and in assay [9] were 15.1 µM, 18.7 µM and 38.8 µM, respectively. In addition, the TGI was 49.4 µM in assay [1]; greater than 100 µM in [2]; 27.9 µM in [3]; 31 µM in assay [4]; 31.9 µM in [5]; 32 µM in assay [6]. Besides, the TGI is 34 µM in assay [7], 36.4 µM in assay [8] and greater than 100 µM in [9].

In the case of `COc1cc(Nc2nc3cc(N)cc(N)c3nc2-c2ccccc2)cc(OC)c1OC`, the GI50 in assay [1] is 15.3 µM; in assay [2], 20.4 µM; in assay [3], 16.8 µM; in [4], 19.6 µM; in assay [5] it was 16 µM; in assay [6], 15.4 µM. For the same compound, the results for the GI50 in assay [7], in assay [10] and in assay [8] were 12.4 µM, 4.4 µM and 18.2 µM, respectively. For the same compound, the TGI in assay [1] was 45.4 µM; in assay [2] it was 83.7 µM; in assay [3], 33.6 µM; in [4], 44.9 µM; in [5] it was 42.8 µM; in assay [6], 34.1 µM. Also, the TGI stood at 32.4 µM in [7], 42 µM in assay [10] and 53.1 µM in [8].

Turning to `COC(=O)C(C(=O)C(=O)Nc1c(C)cccc1C)c1cnc2ccccc2n1` (configuration not stated), the TGI in [1], in assay [2], in assay [4], in [5], in assay [6] and in [7] was greater than 100 µM throughout. For the same compound, the TGI in assay [10], in assay [8] and in [9] was greater than 100 µM throughout.

On to `C/C(=C1/N=C(c2cc([N+](=O)[O-])ccc2Cl)N(c2cccc(C)c2)C1=O)c1cc2ccccc2oc1=O`, for which the TGI is greater than 100 µM in assay [1]; greater than 100 µM in assay [2]; greater than 100 µM in assay [4]; greater than 100 µM in assay [5]; greater than 100 µM in assay [6]; 72 µM in assay [7]. Further, the TGI in assay [10], in assay [8] and in assay [9] was greater than 100 µM throughout.

As for `Cc1nc([P+](c2ccccc2)(c2ccccc2)c2ccccc2)c(Sc2sc(-c3ccccc3)nc2[P+](c2ccccc2)(c2ccccc2)c2ccccc2)o1`, the GI50 in assay [1] was 2.15 µM; in assay [2], 1.72 µM; in assay [3], 1.28 µM; in assay [4], 1.21 µM; in [5], 2.24 µM; in assay [6] it was 0.896 µM. The GI50 is 0.27 µM in assay [7], 0.959 µM in [10] and 1.43 µM in assay [8]. In addition, the TGI was 7.68 µM in [1]; 6.88 µM in assay [2]; 6.24 µM in assay [3]; 5.3 µM in assay [4]; 6.77 µM in assay [5]; 2.94 µM in [6]. For the same compound, the TGI worked out at 1.25 µM in [7], 9.4 µM in assay [10] and 6.15 µM in assay [8].

Regarding `CC1=Nc2ccccc2S/C1=C(/C)NNS(=O)(=O)c1ccc(C)cc1`, the TGI in assay [1], in assay [2], in assay [4], in [5], in assay [6] and in [7] was greater than 100 µM throughout. Besides, the TGI in [10] was 86.7 µM; in assay [8], greater than 100 µM; in assay [9], greater than 100 µM.

In the case of `CCOC(=O)/C(=C/N1CCN(C(=O)c2ccco2)C1=S)C(=O)c1ccccc1`, the GI50 is 6.33 µM in assay [1]; 8.1 µM in assay [2]; 8.96 µM in assay [3]; 8.86 µM in [4]; 16.4 µM in assay [5]; 8.93 µM in assay [6]. The GI50 in assay [7] was 12.4 µM; in assay [10], 15.6 µM. Also, the TGI in assay [1] is 18.5 µM; in [2], 17.4 µM; in [3], 25 µM; in assay [4], 21 µM; in [5], greater than 50 µM; in assay [6] it was 23.7 µM. Besides, the TGI in assay [7] and in [10] was greater than 50 µM each time.

With `c1cc(NNc2cccc(-c3nn[nH]n3)c2)cc(-c2nn[nH]n2)c1`, the TGI in [1], in assay [2], in assay [3], in [4], in [5] and in assay [6] was greater than 100 µM in each case. The TGI in [7], in assay [8] and in assay [9] was greater than 100 µM in each case.

As for `O=S(=O)(NCCCNc1nccc(-c2c(-c3ccc(O)cc3)nc3sccn23)n1)c1ccc(F)cc1`, the GI50 in assay [1] is 2.61 µM; in assay [2], 1.84 µM; in [3], 2.36 µM; in assay [4], 0.064 µM; in [5], 1.99 µM; in assay [6] it was 1.25 µM. The GI50 in assay [7] was 1.58 µM; in [8], 1.83 µM; in assay [9], 2.15 µM. Moreover, the TGI in assay [1] was 10 µM; in assay [2], greater than 100 µM; in assay [3], 10.4 µM; in [4], 2.8 µM; in assay [5] it was 4.56 µM; in assay [6], 4.77 µM. Also, the TGI in assay [7] is 4.72 µM; in [8], 6.27 µM; in [9], 10.1 µM.

Regarding `CCOC(=O)C1Cc2c(cc3c4c(cccc24)N(C(C)=O)C3)N(C)C1` (configuration not stated), the TGI in assay [1], in [2], in assay [4], in [5], in [6] and in assay [7] was greater than 100 µM each time. The values for the TGI in assay [10], in assay [8] and in assay [9] were greater than 100 µM, 1.3 µM and 9.37 µM, respectively.

Turning to `C[C@@H](NC1CCCC[C@H]1O)c1ccccc1` (some centres not stated), the TGI in [1], in assay [2], in assay [4], in assay [5], in [6] and in assay [7] was greater than 100 µM each time. The TGI in assay [10], in assay [8] and in [9] was greater than 100 µM each time.

Take `CCC(C)CCOC(=O)c1ccc(N=Cc2ccc(C=Nc3ccc(C(=O)OCCC(C)CC)cc3)cc2)cc1` (configuration not stated): the TGI in assay [1], in assay [2], in [4], in assay [5], in assay [6] and in assay [7] was greater than 100 µM each time. The TGI in assay [10], in assay [8] and in assay [9] was greater than 100 µM throughout.

For the compound `CN(CCN1C(=O)c2cc([N+](=O)[O-])cc3cc([N+](=O)[O-])cc(c23)C1=O)CCN1C(=O)c2cc([N+](=O)[O-])cc3cc([N+](=O)[O-])cc(c23)C1=O`, the TGI in [1] is 8.65 µM; in assay [2], greater than 100 µM; in assay [4], 9.23 µM; in assay [5], greater than 100 µM; in assay [6], 9.18 µM; in assay [7], greater than 21.2 µM. In addition, the TGI in [10] is 4.03 µM; in assay [8] it was 1.86 µM; in assay [9], 9.69 µM.

In the case of `O=C(CC(Cl)=C(Cl)Cl)Nc1ccccc1`, the GI50 in assay [1], in assay [2], in assay [3], in assay [4], in assay [6] and in assay [7] was greater than 100 µM each time. The GI50 in [10], in assay [8] and in assay [9] was greater than 100 µM throughout. Moreover, the TGI in assay [1], in assay [2], in assay [3], in [4], in assay [6] and in assay [7] was greater than 100 µM throughout. Moreover, the TGI in assay [10], in [8] and in assay [9] was greater than 100 µM each time.

On to `Cc1ccc(S(=O)(=O)OCCn2cnc3nc(NC(=O)c4ccccc4)[nH]c(=O)c32)cc1`, for which the TGI in assay [1], in assay [2], in assay [4], in assay [5], in [6] and in assay [7] was greater than 100 µM each time. Also, the TGI in assay [10], in [8] and in assay [9] was greater than 100 µM throughout.

In the case of `O=C1CSCc2sccc21`, the TGI in [1], in assay [2], in assay [3], in assay [4], in [5] and in assay [6] was greater than 100 µM in each case. Besides, the TGI in [10], in assay [8] and in assay [9] was greater than 100 µM in each case.

Consider `CCSCC1CC(O)(c2ccccc2)CC(c2ccc(F)cc2)O1` (configuration not stated), for which the GI50 in assay [1] was 2.11 µM; in assay [2] it was 1.74 µM; in assay [3] it was 1.6 µM; in assay [4], 1.76 µM; in assay [5], 1.9 µM; in [6] it was 1.66 µM. Moreover, the GI50 in [7] was 1.95 µM; in [10] it was 1.86 µM; in assay [8], 1.94 µM. In addition, the TGI came out at 5.49 µM in [1]; 3.17 µM in assay [2]; 3.45 µM in [3]; 3.32 µM in assay [4]; 3.92 µM in assay [5]; 3.02 µM in [6]. For the same compound, the TGI turned out to be 6.46 µM in assay [7], 5.91 µM in assay [10] and 5.88 µM in assay [8].

Regarding `CCCCCN(CCCCC)C(=O)[C@@H](CCC(=O)O)NC(=O)c1cc2ccccc2[nH]1`, the TGI in assay [1] is greater than 100 µM; in assay [2], greater than 100 µM; in assay [4] it was 53.4 µM; in [5], greater than 100 µM; in [6], 34.2 µM; in assay [7], 35.4 µM. Besides, the TGI in [10] was 61 µM; in assay [8], 39.7 µM; in assay [9], greater than 100 µM.

`CC(C)(O)[C@@H]1CC[C@@]2(C)CCCC(O)C2(O)C1` (some centres not stated): the TGI in assay [1], in assay [2], in assay [4], in assay [5], in [6] and in assay [7] was greater than 100 µM each time. The TGI in [10], in assay [8] and in assay [9] was greater than 100 µM each time.

With `O=C1NC(Cc2ccc(O)cc2)C(=O)N2CCCC12` (configuration not stated), the TGI in assay [1], in [2], in assay [4], in assay [5], in assay [6] and in assay [7] was greater than 100 µM each time. In addition, the TGI in [10], in assay [8] and in assay [9] was greater than 100 µM each time.

For the compound `c1ccc2sc(SCCSc3nc4ccccc4s3)nc2c1`, the TGI in assay [1], in assay [2], in assay [3], in assay [4], in [5] and in assay [6] was greater than 100 µM throughout. Moreover, the TGI in assay [7] and in assay [8] was greater than 100 µM in each case.
